Legend:
[1] = target: T1, rat-species vanilloid receptor 1 (VR1/TRPV1) (Rattus norvegicus, UniProt O35433); experiment: Functional testing on the vanilloid receptor 1, FLIPR Ca2+ influx in rat DRG cells, capsaicin; format: cell-based; design: key to Ki (rat) [nM] Cap: agonist / partial agonist / no effect: AG=agonist; pAG=partial agonist; NE=no effect; details: for Ki: capsaicin (Cap), includes values given in brackets after pAG
T1 construct: endogenous in cells; host or cells: primary cells dissociated from rat dorsal root ganglia (DRG), cultured 2-3 days with NGF
T1 sequence (O35433 whole entry): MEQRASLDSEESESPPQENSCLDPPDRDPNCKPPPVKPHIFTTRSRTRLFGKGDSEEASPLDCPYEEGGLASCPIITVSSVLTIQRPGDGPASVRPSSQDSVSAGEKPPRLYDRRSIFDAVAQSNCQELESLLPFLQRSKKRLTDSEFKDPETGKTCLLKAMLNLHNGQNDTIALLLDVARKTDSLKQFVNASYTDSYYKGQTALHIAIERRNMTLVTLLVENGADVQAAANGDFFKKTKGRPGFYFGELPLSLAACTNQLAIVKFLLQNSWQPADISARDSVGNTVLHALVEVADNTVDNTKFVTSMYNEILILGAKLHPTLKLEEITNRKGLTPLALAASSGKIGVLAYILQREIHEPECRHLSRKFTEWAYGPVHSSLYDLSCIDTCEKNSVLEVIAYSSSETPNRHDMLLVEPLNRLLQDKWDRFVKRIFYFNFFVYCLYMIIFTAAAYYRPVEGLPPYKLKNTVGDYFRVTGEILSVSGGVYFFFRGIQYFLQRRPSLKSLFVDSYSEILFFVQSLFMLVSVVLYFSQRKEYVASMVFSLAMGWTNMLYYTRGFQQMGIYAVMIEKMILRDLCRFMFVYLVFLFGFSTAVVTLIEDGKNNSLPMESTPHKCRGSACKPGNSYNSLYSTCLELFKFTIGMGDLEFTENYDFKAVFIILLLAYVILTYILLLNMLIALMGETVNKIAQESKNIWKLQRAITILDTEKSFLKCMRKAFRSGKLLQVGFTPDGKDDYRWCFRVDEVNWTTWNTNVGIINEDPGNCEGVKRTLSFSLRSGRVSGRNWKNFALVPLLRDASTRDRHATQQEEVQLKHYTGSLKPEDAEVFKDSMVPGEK

hVR1 = target: T2, hVR1 (Homo sapiens, UniProt Q8NER1); experiment: Functional test on VR1, FLIPR Ca2+ influx in transfected CHO K1 cells, capsaicin; format: cell-based, human being; design: key to Ki (human being) [nM] Cap: agonist / partial agonist / no effect: AG=agonist; pAG=partial agonist; NE=no effect; details: for Ki: capsaicin (Cap), includes values given in brackets after pAG, read-out: Ki (human being) [nM] Cap
T2 construct: expressed in transfected cells; host or cells: CHO K1 cells (ECACC), stably transfected
T2 sequence (Q8NER1 whole entry): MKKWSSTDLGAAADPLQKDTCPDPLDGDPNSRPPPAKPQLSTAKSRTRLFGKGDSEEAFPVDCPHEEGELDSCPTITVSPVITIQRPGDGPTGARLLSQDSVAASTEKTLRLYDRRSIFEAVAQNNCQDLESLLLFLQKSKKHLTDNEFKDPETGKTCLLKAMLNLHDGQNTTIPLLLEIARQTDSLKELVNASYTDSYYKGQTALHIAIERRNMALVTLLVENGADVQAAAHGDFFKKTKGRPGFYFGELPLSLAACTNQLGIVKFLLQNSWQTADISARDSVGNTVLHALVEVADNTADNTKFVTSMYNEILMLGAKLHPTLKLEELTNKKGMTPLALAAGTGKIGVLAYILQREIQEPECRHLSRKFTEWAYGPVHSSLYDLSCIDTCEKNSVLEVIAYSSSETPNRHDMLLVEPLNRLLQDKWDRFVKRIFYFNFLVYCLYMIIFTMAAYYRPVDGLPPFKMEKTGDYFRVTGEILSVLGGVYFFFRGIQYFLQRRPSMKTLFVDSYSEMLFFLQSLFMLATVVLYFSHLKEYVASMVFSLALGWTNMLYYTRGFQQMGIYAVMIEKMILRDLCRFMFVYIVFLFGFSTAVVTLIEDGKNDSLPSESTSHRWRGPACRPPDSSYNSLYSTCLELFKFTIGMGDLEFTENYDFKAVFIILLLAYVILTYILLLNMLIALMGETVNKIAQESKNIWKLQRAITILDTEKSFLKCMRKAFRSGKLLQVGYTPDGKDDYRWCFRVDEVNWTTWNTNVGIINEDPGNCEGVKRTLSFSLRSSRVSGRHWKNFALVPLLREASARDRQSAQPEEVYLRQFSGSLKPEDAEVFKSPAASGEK

Structure (SMILES)	Ki [1] [nM]	Ki (hVR1) [nM]	Ki (rat) [nM] Cap: agonist / partial agonist / no effect [1]	Ki (human being) [nM] Cap: agonist / partial agonist / no effect (hVR1)
CC(C(=O)NCc1cc(C(C)(C)C)nn1-c1cccc(Cl)c1)c1ccc2c(c1)OCO2 (stereo not drawn) [Example 11, 2-(benzo[d][1,3]dioxol-5-yl)-N-((3-tert-butyl-1-(3-chlorophenyl)-1H-pyrazol-5-yl)methyl)propanamide]		3.5	AG	pAG
CC(C(=O)NCc1cc(C(F)(F)F)nn1-c1cccc(Cl)c1)c1cccc2cnccc12 (stereo not drawn) [Example 64, N-((1-(3-chlorophenyl)-3-(trifluoromethyl)-1H-pyrazol-5-yl)methyl)-2-(isoquinolin-5-yl)propanamide]	1	0.2		
CC(C(=O)NCc1cc(C(F)(F)F)nn1-c1cccc(Cl)c1)c1ccc2cc(O)ccc2c1 (stereo not drawn) [Example 50, N-((1-(3-chlorophenyl)-3-(trifluoromethyl)-1H-pyrazol-5-yl)methyl)-2-(6-hydroxynaphthalen-2-yl)propanamide]	2.5	1.3	pAG	pAG

More lines, in order of falling Ki (hVR1), values ahead:

Ki [1] [nM]	Ki (hVR1) [nM]	Ki (rat) [nM] Cap: agonist / partial agonist / no effect [1]	Ki (human being) [nM] Cap: agonist / partial agonist / no effect (hVR1)	Structure (SMILES)
14.7	15	pAG		Cc1nc2ccc(C(C)C(=O)NCc3cc(C(F)(F)F)nn3-c3cccc(Cl)c3)cc2s1 (stereo not drawn) [Example 45, N-((1-(3-chlorophenyl)-3-(trifluoromethyl)-1H-pyrazol-5-yl)methyl)-2-(2-methylbenzo[d]thiazol-6-yl)propanamide]
15.8	10.8			CC(C)(C)c1cc(CNC(=O)Nc2ccc3c(c2)CCC3)n(-c2cccc(Cl)c2)n1 [Example 79, 1-((3-tert-butyl-1-(3-chlorophenyl)-1H-pyrazol-5-yl)methyl)-3-(2,3-dihydro-1H-inden-5-yl)urea]
5.5	6.4	pAG	pAG	CC(C(=O)NCc1cc(C(C)(C)C)nn1-c1cccc(Cl)c1)c1ccc2c(c1)OCCO2 (stereo not drawn) [Example 13, N-((3-tert-butyl-1-(3-chlorophenyl)-1H-pyrazol-5-yl)methyl)-2-(2,3-dihydrobenzo[b][1,4]dioxin-6-yl)propanamide]
